Columns and labels:
Format in all cases: functional
Settings in all cases: read-out: Activity
SH-SY5Y [1] = test: Neuroprotective activity against H2O2-induced cell death in human SH-SY5Y cells assessed as cell viability at 100 uM preincubated for 1 hr followed by H2O2 addition and measured after 4 hrs by CCK8 assay (reference value: 61.14 +/- 1.05%)
SH-SY5Y [2] = test: Neuroprotective activity against H2O2-induced cell death in human SH-SY5Y cells assessed as cell viability at 25 uM preincubated for 1 hr followed by H2O2 addition and measured after 4 hrs by CCK8 assay (reference value: 61.14 +/- 1.05%)
SH-SY5Y [3] = test: Neuroprotective activity against H2O2-induced cell death in human SH-SY5Y cells assessed as cell viability at 50 uM preincubated for 1 hr followed by H2O2 addition and measured after 4 hrs by CCK8 assay (reference value: 61.14 +/- 1.05%)

SMILES	viability at 100 µM (SH-SY5Y [1])	viability at 25 µM (SH-SY5Y [2])	viability at 50 µM (SH-SY5Y [3])
COC(=O)[C@H]1O[C@@H](O[C@H]2[C@@H](O)C[C@@]3(C)[C@@H](CC[C@]4(C)[C@@H]3CC=C3[C@@H]5CC(C)(C)CC[C@]5(C(=O)O[C@@H]5O[C@H](CO)[C@@H](O)[C@H](O)[C@H]5O)CC[C@]34C)[C@]2(C)CO)[C@H](O)[C@@H](O)[C@@H]1O[C@@H]1OC[C@@H](O)[C@H](O)[C@H]1O	73%	62.1%	64.8%
COC(=O)[C@H]1O[C@@H](O[C@H]2[C@@H](O)C[C@@]3(C)[C@@H](CC[C@]4(C)[C@@H]3CC=C3[C@@H]5CC(C)(C)CC[C@]5(C(=O)O[C@@H]5O[C@H](CO)[C@@H](O)[C@H](O)[C@H]5O)CC[C@]34C)[C@]2(C)CO)[C@H](O[C@@H]2O[C@H](CO)[C@H](O)[C@H](O)[C@H]2O)[C@@H](O)[C@@H]1O	67.1%	60.7%	61.2%
COC(=O)[C@H]1O[C@@H](O[C@H]2CC[C@@]3(C)[C@@H](CC[C@]4(C)[C@@H]3CC=C3[C@@H]5CC(C)(C)CC[C@]5(C(=O)O[C@@H]5O[C@H](CO)[C@@H](O)[C@H](O)[C@H]5O)CC[C@]34C)[C@]2(C)CO)[C@H](O[C@@H]2O[C@H](CO)[C@@H](O)[C@H](O)[C@H]2O[C@@H]2OC[C@H](O)[C@H](O)[C@H]2O)[C@@H](O)[C@@H]1O	63.1%	61.9%	62.9%
CC1(C)CC[C@]2(C(=O)O)CC[C@]3(C)C(=CC[C@@H]4[C@@]5(C)C[C@H](O)[C@H](O)[C@@](C)(C(=O)O)[C@@H]5CC[C@]43C)[C@@H]2C1	62.2%	60.1%	61.1%
Cc1c(C)c2c(c(C)c1O)CCC(C)(C(=O)O)O2 (stereo not given) [TROLOX]	78.2%	70.2%	75.3%

Source: ChEMBL document CHEMBL4610059, “Isolation of triterpenoid saponins from Medicago sativa L. with neuroprotective activities” (2020)
